Reference: patent US20240041830A1, “CIRCULATING BIOMARKERS OF RESPONSE TO PD-1/PD-L1 BLOCKADE AND GSK-3 INHIBITION” (Brown University, priority 2022, published 2024)

Test system: tumor biopsies (colorectal cancer, pancreatic cancer)
Test: GeoMx Digital Spatial Profiling of patient tumor biopsies
Type: in vivo, human
Source text: Digital spatial profiling. An Agilent Technologies hybridization oven was used for baking tissue onto slides (Agilent, Santa Clara, CA, USA). A NanoString GeoMx® Digital Spatial Profiler (DSP) instrument (NanoString, Seattle, WA, USA) was used to scan slides, identify regions of interest (ROIs), and collect photocleavable barcodes according to manufacturer instructions. A custom panel was designed to include the following proteins: Ms IgG1, Ms IgG2a, Rb IgG, GAPDH, Histone H3, S6, Beta-2-microglobulin, CD31, CD45, Ki-67, ARG1, CD11 b, CD11 c, CD14, CD163, CD39, CD40, CD68, HLA-DR, GZMB, CD20, CD3, CD34, CD4, CD56, CD66b, CD8, Foxp3, Fibronectin, 4-1BB, B7-H3, CTLA4, GITR, IDO1, LAG3, OX40L, STING, Tim-3, VISTA, Bcl-2, ER-α, EpCAM, Her2, MART1, NY-ESO-1, PR, PTEN, PanCk, SMA, CD127, CD25, CD27, CD44, CD45RO, CD80, ICOS, PD-1, PD-L1, and PD-L2. An Eppendorf MasterCycler Gradient Thermal Cycler was used to generate the Illumina sequencing libraries from the photocleaved tags. (Eppendorf, Hamburg, Germany). An Agilent Fragment Analyzer (RRID: SCR_019417) was used for library size distribution analysis with a high-sensitivity NGS Fragment Kit (Cat #DNF-474-0500, Agilent, Santa Clara, CA, USA). qPCR for quantification was run using an Illumina-compatible KAPA Library Quantification Kits (ROX Low) (cat #KK4873) on an Applied Biosystems ViiA 7 Real-Time qPCR/PCR Thermal Cycler System (Applied Biosystems, San Francisco, CA, USA) and was analyzed using QuantStudio software (RRID: SCR_018712). Sequencing was performed using a NextSeq 500/550 High Output Kit v2.5 (75 Cycles) kit (cat #20024906) on an Illumina Sequencing NextSeq 550 System (RRID: SCR_016381, Illumina, San Diego, CA, USA). The initial annotated dataset went through quality control (QC) to check if housekeeper genes and background (isotype) control molecules were themselves correlated with the predictors of interest. Every ROI was tested for raw sequencing reads (segments with <1000 raw reads were removed), % sequencing saturation, defined as (1-deduplicated reads/aligned reads)%, segments below ˜50% were not analyzed), and nuclei count per segment, for which >100 nuclei per segment is generally recommended. Both immunoglobulins (lgGs) and housekeeper genes were highly correlated with one another. Signal to noise (SNR) ratio was calculated using background probes and all probes were detected above the background in at least one ROI. data were normalized based on background IgG expression and all normalization factors were well distributed. Data analysis and visualization were generated using R (RRID: SCR_001905; R Development Core Team, 2020).
PanCK+ expression of immunosuppressive CD39 negatively correlated with time-on-treatment (Tx time) while CD45+ expression of monocyte/macrophage marker CD163 positively correlated with Tx time. The inventors used GeoMx Digital Spatial Profiling (DSP) technology to profile the expression of fifty-nine proteins in tumor biopsies (N=12) from patients treated with elraglusib (N=7). A total of 42% (N=5) of the tumor biopsies analyzed were collected near or before treatment start (pre-treatment) and 58% (N=7) of the biopsies analyzed were collected from post-treatment (average time-on-treatment (Tx time) at post-treatment biopsy: 270 days) (FIG. 7A). Primary tumor types included colorectal cancer (N=4, 33%) and pancreatic cancer (N=8, 67%), while metastatic biopsy tissue sites included lung (N=2, 17%), liver (N=7, 58%), rectum (N=2, 17%), and pleura (N=1, 8%). the inventors analyzed five paired tumor biopsies ([…], 83%), and two unpaired biopsies (N=2 slides total, 17%). Half (N=6, 50%) of the tumor sections were needle biopsies and half (N=6, 50%) were tissue biopsies. All patients included in this analysis were considered responders based on the definition used in the Phase 1 trial that treatment response is equal to disease control greater than 16 weeks. […]

[1] = CD45+ regions, post- vs pre-treatment biopsies
[2] = tumor-infiltrating CD45+ segments, post- vs pre-treatment

For `Cn1cc(C2=C(c3coc4ccc(F)cc34)C(=O)NC2=O)c2cc3c(cc21)OCO3` [elraglusib], the “CD11 b protein expression” value [1] was “decreased”, the “CD11c protein expression” value [1] was “decreased” and the CD40 protein expression [1] was “decreased”. For the same compound, the CD66b protein expression [1] was “decreased”, the CD68 protein expression [1] was “decreased” and the CD80 protein expression [1] was “decreased”. The IDO1 protein expression [1] was “decreased”, the LAG3 protein expression [1] was “decreased” and the PD-1 protein expression [1] was “decreased”. For the same compound, the PD-L1 protein expression [1] was “decreased”, the PD-L2 protein expression [1] was “decreased” and the VISTA protein expression [1] was “decreased”. For the same compound, the PD-L1 expression (PanCK+ segments, post- vs pre-treatment biopsies) was “downregulation”, the ARG1 protein expression [2] was “reduced” and the B2M protein expression [2] was “reduced”. For the same compound, the B7-H3 protein expression [2] was “elevated”, the CD11c protein expression [2] was “reduced” and the CD34 protein expression [2] was “reduced”. The CD44 protein expression [2] was “reduced”, the CD45R0 protein expression [2] was “reduced” and the CD56 protein expression [2] was “reduced”. The CD66b protein expression [2] was “reduced”, the CD68 protein expression [2] was “reduced” and the CD80 protein expression [2] was “reduced”. The CD127 protein expression [2] was “elevated”, the CTLA4 protein expression [2] was “elevated” and the GITR protein expression [2] was “reduced”. The HLA-DR protein expression [2] was “reduced”, the IDO1 protein expression [2] was “reduced” and the Ki-67 protein expression [2] was “reduced”. For the same compound, the OX4OL protein expression [2] was “elevated”, the PD-1 protein expression [2] was “reduced” and the PD-L1 protein expression [2] was “reduced”. For the same compound, the PD-L2 protein expression [2] was “reduced”, the PTEN protein expression [2] was “reduced” and the VISTA protein expression [2] was “reduced”.
